Measurements reported in patent publication US12378224B2 (Dong-A Socio Holdings Co., Ltd., priority 2016, dated 2025).

The molecules below were run against human MER (528-end) (Homo sapiens (Human), UniProt Q12866) (assay: HTRF Kinase Activity Biochemical Assay (KinEASE-TK)). Settings: 10 uM ATP.
Procedure, shortened: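 Recombinant human MER (528-end) phosphorylated biotin-TK peptide substrate, 1 h at room temperature. Reaction stopped with detection buffer containing 0.375 nM Eu3+-cryptate anti-TK antibody and 0.062 uM streptavidin-XL665, 1 h further. Activity taken as HTRF ratio 665/620 nm ×10,000, 340 nm excitation.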

Chain of human MER (528-end) (Q12866 528-999 limits assumed): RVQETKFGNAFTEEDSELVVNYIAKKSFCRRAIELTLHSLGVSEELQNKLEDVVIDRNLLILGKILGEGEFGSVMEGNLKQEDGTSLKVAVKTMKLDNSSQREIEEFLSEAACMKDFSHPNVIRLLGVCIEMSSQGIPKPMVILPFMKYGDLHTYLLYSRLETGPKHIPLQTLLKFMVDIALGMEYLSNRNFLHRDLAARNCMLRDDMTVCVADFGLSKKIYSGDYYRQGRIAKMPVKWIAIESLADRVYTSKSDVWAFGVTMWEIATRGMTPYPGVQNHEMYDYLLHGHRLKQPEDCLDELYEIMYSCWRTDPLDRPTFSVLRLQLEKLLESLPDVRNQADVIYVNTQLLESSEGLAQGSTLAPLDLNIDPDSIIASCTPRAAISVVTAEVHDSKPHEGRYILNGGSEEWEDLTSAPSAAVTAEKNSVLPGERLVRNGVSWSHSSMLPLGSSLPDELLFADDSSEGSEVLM

**Q.** With CN1CCN(Cc2cccc(-c3cccc(NC(=O)N4CC[C@@H](NC(=O)c5cc(-c6cnn(C)c6)cnc5N)C4)c3)c2)CC1 [Example 267, (R)-2-amino-5-(1-methyl-1H-pyrazol-4-yl)-N-(1-((3′-((4-methylpiperazin-1-yl)methyl)-[1,1′-biphenyl]-3-yl)carbamoyl)pyrrolidin-3-yl)nicotinamide] as the molecule, how does the IC50 read?
**A.** > 1000 nM

**Q.** Which IC50 does the source give for CN1CCN(Cc2ccc(-c3cccc(NC(=O)N4CC[C@@H](NC(=O)c5cc(-c6cnn(C)c6)cnc5N)C4)c3)cc2)CC1 [Example 268, (R)-2-amino-5-(1-methyl-1H-pyrazol-4-yl)-N-(1-((4′-((4-methylpiperazin-1-yl)methyl)-[1,1′-biphenyl]-3-yl)carbamoyl)pyrrolidin-3-yl)nicotinamide] here?
**A.** 10 to 100 nM

**Q.** For Cn1cc(-c2cnc(N)c(C(=O)N[C@@H]3CCN(C(=O)Nc4ccc(-c5ccc(CN)cc5)cc4)C3)c2)cn1 [Example 270, (R)-2-amino-N-(1-((4′-(aminomethyl)-[1,1′-biphenyl]-4-yl)carbamoyl)pyrrolidin-3-yl)-5-(1-methyl-1H-pyrazol-4-yl)nicotinamide], which IC50 is on record?
**A.** > 1000 nM

**Q.** Which IC50 does the source give for Cn1cc(-c2cnc(N)c(C(=O)N[C@@H]3CCN(C(=O)Nc4ccc(-c5ccccc5)cc4)C3)c2)cn1 [Example 271, (R)—N -(1-([1,1′-biphenyl]-4-ylcarbamoyl)pyrrolidin-3-yl)-2-amino-5-(1-methyl-1H-pyrazol-4-yl)nicotinamide] here?
**A.** 100 to 1000 nM

**Q.** For CN1CCN(Cc2ccc(-c3cccc(NC(=S)N4CC[C@@H](NC(=O)c5cc(-c6cnn(C)c6)cnc5N)C4)c3)cc2)CC1 [Example 274, (R)-2-amino-5-(1-methyl-1H-pyrazol-4-yl)-N-(1-((4′-((4-methylpiperazin-1-yl)methyl)-[1,1′-biphenyl]-3-yl)carbamothioyl)pyrrolidin-3-yl)nicotinamide], which IC50 is on record?
**A.** 10 to 100 nM

**Q.** How did the IC50 turn out when CN1CCN(Cc2ccc(-c3cccc(OC(=O)N4CC[C@@H](NC(=O)c5cc(-c6cnn(C)c6)cnc5N)C4)c3)cc2)CC1 [Example 275, 4′-((4-methylpiperazin-1-yl)methyl)-[1,1′-biphenyl]-3-yl (R)-3-(2-amino-5-(1-methyl-1H-pyrazol-4-yl)nicotinamido)pyrrolidine-1-carboxylate] was run?
**A.** 100 to 1000 nM

**Q.** Which IC50 does the source give for Cn1cc(-c2cnc(N)c(C(=O)N[C@@H]3CCN(C(=O)Oc4cccc(-c5ccc(C(=O)O)cc5)c4)C3)c2)cn1 [Example 278, (R)-3′-((3-(2-amino-5-(1-methyl-1H-pyrazol-4-yl)nicotinamido)pyrrolidine-1-carbonyl)oxy)-[1,1′-biphenyl]-4-carboxylic acid] here?
**A.** > 1000 nM

**Q.** For Cn1cc(-c2cnc(N)c(C(=O)N[C@@H]3CCN(C(=O)Oc4cccc(-c5ccc(O)cc5)c4)C3)c2)cn1 [Example 279, 4′-hydroxy-[1,1′-biphenyl]-3-yl (R)-3-(2-amino-5-(1-methyl-1H-pyrazol-4-yl)nicotinamido)pyrrolidine-1-carboxylate], which IC50 is on record?
**A.** 100 to 1000 nM

**Q.** How did the IC50 turn out when Cn1cc(-c2cnc(N)c(C(=O)N[C@@H]3CCN(C(=O)Oc4cccc(-c5ccc(CO)cc5)c4)C3)c2)cn1 [Example 280, 4′-(hydroxymethyl)-[1,1′-biphenyl]-3-yl (R)-3-(2-amino-5-(1-methyl-1H-pyrazol-4-yl)nicotinamido)pyrrolidine-1-carboxylate] was run?
**A.** 100 to 1000 nM

**Q.** Cn1cc(-c2cnc(N)c(C(=O)N[C@@H]3CCN(C(=O)Oc4cccc(-c5cnn(CCO)c5)c4)C3)c2)cn1 [Example 284, 3-(1-(2-hydroxyethyl)-1H-pyrazol-4-yl)phenyl (R)-3-(2-amino-5-(1-methyl-1H-pyrazol-4-yl)nicotinamido)pyrrolidine-1-carboxylate] was tested. Which IC50 did it give?
**A.** > 1000 nM

**Q.** How did the IC50 turn out when Cn1cc(-c2cnc(N)c(C(=O)N[C@@H]3CCN(C(=O)Oc4cccc(-c5cnn(CCN6CCOCC6)c5)c4)C3)c2)cn1 [Example 287, 3-(1-(2-morpholinoethyl)-1H-pyrazol-4-yl)phenyl (R)-3-(2-amino-5-(1-methyl-1H-pyrazol-4-yl)nicotinamido)pyrrolidine-1-carboxylate] was run?
**A.** > 1000 nM

**Q.** With CN1CCN(CCn2cc(-c3cccc(OC(=O)N4CC[C@@H](NC(=O)c5cc(-c6cnn(C)c6)cnc5N)C4)c3)cn2)CC1 [Example 288, 3-(1-(2-(4-methylpiperazin-1-yl)ethyl)-1H-pyrazol-4-yl)phenyl (R)-3-(2-amino-5-(1-methyl-1H-pyrazol-4-yl)nicotinamido)pyrrolidine-1-carboxylate] as the molecule, how does the IC50 read?
**A.** > 1000 nM

**Q.** How did the IC50 turn out when Cn1cc(-c2cnc(N)c(C(=O)N[C@@H]3CCN(C(=O)Oc4cccc(-c5cncc6ccccc56)c4)C3)c2)cn1 [Example 289, 3-(isoquinolin-4-yl)phenyl (R)-3-(2-amino-5-(1-methyl-1H-pyrazol-4-yl)nicotinamido)pyrrolidine-1-carboxylate] was run?
**A.** 10 to 100 nM

**Q.** For CN1CCN(c2cc(-c3cccc(OC(=O)N4CC[C@@H](NC(=O)c5cc(-c6cnn(C)c6)cnc5N)C4)c3)ccn2)CC1 [Example 290, 3-(2-(4-methylpiperazin-1-yl)pyridin-4-yl)phenyl (R)-3-(2-amino-5-(1-methyl-1H-pyrazol-4-yl)nicotinamido)pyrrolidine-1-carboxylate], which IC50 is on record?
**A.** > 1000 nM

**Q.** How did the IC50 turn out when CN1CCN(Cc2ccc(-c3ccc4cc(OC(=O)N5CC[C@@H](NC(=O)c6cc(-c7cnn(C)c7)cnc6N)C5)ccc4c3)cc2)CC1 [Example 293, 6-(4-((4-methylpiperazin-1-yl)methyl)phenyl)naphthalen-2-yl (R)-3-(2-amino-5-(1-methyl-1H-pyrazol-4-yl)nicotinamido)pyrrolidine-1-carboxylate] was run?
**A.** 100 to 1000 nM

**Q.** Cn1cc(-c2cnc(N)c(C(=O)N[C@@H]3CCN(C(=O)Oc4ccc5ccc(OCC6CCNCC6)cc5c4)C3)c2)cn1 [Example 298] was tested. Which IC50 did it give?
**A.** 100 to 1000 nM

**Q.** How did the IC50 turn out when Cn1cc(-c2cnc(N)c(C(=O)N[C@@H]3CCN(C(=O)Oc4ccc5ccc(OCCO)cc5c4)C3)c2)cn1 [Example 299, 7-(2-hydroxyethoxy)naphthalen-2-yl (R)-3-(2-amino-5-(1-methyl-1H-pyrazol-4-yl)nicotinamido)pyrrolidine-1-carboxylate] was run?
**A.** 100 to 1000 nM

**Q.** Which IC50 does the source give for Cn1cc(-c2cnc(N)c(C(=O)N[C@@H]3CCN(C(=O)Oc4cccc(-c5ccc(CNC6CNC6)cc5)c4)C3)c2)cn1 [Example 306, 4′-((azetidin-3-ylamino)methyl)-[1,1′-biphenyl]-3-yl (R)-3-(2-amino-5-(1-methyl-1H-pyrazol-4-yl)nicotinamido)pyrrolidine-1-carboxylate] here?
**A.** 100 to 1000 nM

**Q.** How did the IC50 turn out when Cn1cc(-c2cnc(N)c(C(=O)N[C@@H]3CCN(C(=O)Oc4cccc(-c5ccc(CNCCN)cc5)c4)C3)c2)cn1 [Example 307, 4′-(((2-aminoethyl)amino)methyl)-[1,1′-biphenyl]-3-yl (R)-3-(2-amino-5-(1-methyl-1H-pyrazol-4-yl)nicotinamido)pyrrolidine-1-carboxylate] was run?
**A.** 100 to 1000 nM

**Q.** For CN(C)CCNCc1ccc(-c2cccc(OC(=O)N3CC[C@@H](NC(=O)c4cc(-c5cnn(C)c5)cnc4N)C3)c2)cc1 [Example 308, 4′-(((2-(dimethylamino)ethyl)amino)methyl)-[1,1′-biphenyl]-3-yl (R)-3-(2-amino-5-(1-methyl-1H-pyrazol-4-yl)nicotinamido)pyrrolidine-1-carboxylate], which IC50 is on record?
**A.** 100 to 1000 nM

**Q.** CN1CC[C@@H](NCc2ccc(-c3cccc(OC(=O)N4CC[C@@H](NC(=O)c5cc(-c6cnn(C)c6)cnc5N)C4)c3)cc2)C1 [Example 310, 4′-((((R)-1-methylpyrrolidin-3-yl)amino)methyl)-[1,1′-biphenyl]-3-yl (R)-3-(2-amino-5-(1-methyl-1H-pyrazol-4-yl)nicotinamido)pyrrolidine-1-carboxylate] was tested. Which IC50 did it give?
**A.** 100 to 1000 nM

**Q.** For CN(C)C1CCN(Cc2ccc(-c3cccc(OC(=O)N4CC[C@@H](NC(=O)c5cc(-c6cnn(C)c6)cnc5N)C4)c3)cc2)C1 (stereo partly drawn) [Example 311, 4′-((3-(dimethylamino)pyrrolidin-1-yl)methyl)-[1,1′-biphenyl]-3-yl (3R)-3-(2-amino-5-(1-methyl-1H-pyrazol-4-yl)nicotinamido)pyrrolidine-1-carboxylate], which IC50 is on record?
**A.** 100 to 1000 nM

**Q.** Cn1cc(-c2cnc(N)c(C(=O)N[C@@H]3CCN(C(=O)Oc4cccc(-c5ccc(CNC[C@@H]6CCCN6)cc5)c4)C3)c2)cn1 [Example 312, 4′-(((((S)-pyrrolidin-2-yl)methyl)amino)methyl)-[1,1′-biphenyl]-3-yl (R)-3-(2-amino-5-(1-methyl-1H-pyrazol-4-yl)nicotinamido)pyrrolidine-1-carboxylate] was tested. Which IC50 did it give?
**A.** 100 to 1000 nM

**Q.** With Cn1cc(-c2cnc(N)c(C(=O)N[C@@H]3CCN(C(=O)Oc4cccc(-c5ccc(CN[C@@H]6CCNC6)cc5)c4)C3)c2)cn1 [Example 313, 4′-((((R)-pyrrolidin-3-yl)amino)methyl)-[1,1′-biphenyl]-3-yl (R)-3-(2-amino-5-(1-methyl-1H-pyrazol-4-yl)nicotinamido)pyrrolidine-1-carboxylate] as the molecule, how does the IC50 read?
**A.** 100 to 1000 nM

**Q.** For CCN1CCC[C@@H]1CNCc1ccc(-c2cccc(OC(=O)N3CC[C@@H](NC(=O)c4cc(-c5cnn(C)c5)cnc4N)C3)c2)cc1 [Example 314, 4′-(((((R)-1-ethylpyrrolidin-2-yl)methyl)amino)methyl)-[1,1′-biphenyl]-3-yl (R)-3-(2-amino-5-(1-methyl-1H-pyrazol-4-yl)nicotinamido)pyrrolidine-1-carboxylate], which IC50 is on record?
**A.** 100 to 1000 nM

**Q.** How did the IC50 turn out when Cn1cc(-c2cnc(N)c(C(=O)N[C@@H]3CCN(C(=O)Oc4cccc(-c5ccc(CN[C@H]6CCCNC6)cc5)c4)C3)c2)cn1 [Example 315, 4′-((((S)-piperidin-3-yl)amino)methyl)-[1,1′-biphenyl]-3-yl (R)-3-(2-amino-5-(1-methyl-1H-pyrazol-4-yl)nicotinamido)pyrrolidine-1-carboxylate] was run?
**A.** 100 to 1000 nM

**Q.** With Cn1cc(-c2cnc(N)c(C(=O)N[C@@H]3CCN(C(=O)Oc4cccc(-c5ccc(CN6CCC[C@@H](N)C6)cc5)c4)C3)c2)cn1 [Example 316, 4′-(((R)-3-aminopiperidin-1-yl)methyl)-[1,1′-biphenyl]-3-yl (R)-3-(2-amino-5-(1-methyl-1H-pyrazol-4-yl)nicotinamido)pyrrolidine-1-carboxylate] as the molecule, how does the IC50 read?
**A.** 100 to 1000 nM
